In the test the test system is CD2F1 mice, L1210 leukemia ip, survival T/C. The test can be described thus: NCI In Vivo Anticancer Drug Screen. Data for tumor model L1210 Leukemia (intraperitoneal) in CD2F1 (CDF1) mice. Particulars: higher = longer survival. The gist of the method:
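Compound-dosed mice with transplantable tumor versus matched vehicle controls; endpoint ratio T/C reported.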

[1] abbreviates: endpoint: mean survival time, dose: 100.0 mg/kg/injection, schedule: Q01DX009 (ip), vehicle: saline with Tween-80.
Setting [2] is: endpoint: mean survival time, dose: 100.0 mg/kg/injection, schedule: Q04DX003 (ip), vehicle: saline with Tween-80.
The mark [3] stands for this setting: endpoint: mean survival time, dose: 200.0 mg/kg/injection, schedule: Q01DX009 (ip), vehicle: saline with Tween-80.
Where [4] appears, read: endpoint: mean survival time, dose: 200.0 mg/kg/injection, schedule: Q04DX003 (ip), vehicle: saline with Tween-80.
[5] abbreviates: endpoint: mean survival time, dose: 400.0 mg/kg/injection, schedule: Q01DX009 (ip), vehicle: saline with Tween-80.
Where [6] appears, read: endpoint: mean survival time, dose: 400.0 mg/kg/injection, schedule: Q04DX003 (ip), vehicle: saline with Tween-80.

Values joined by “and” are separate entries in the source; they are usually repeats but may differ in a detail not shown here. Identical values can stand only once. Toxic doses and inconclusive results are not listed.

As for `O=C1NC2(c3ccccc3)NC(=O)NC2(c2ccccc2)N1` (stereo not given), the T/C is 98 % of control under setting [1]; 101 % of control under setting [2]; 98 % of control under setting [3]; 97 % of control under setting [4]; 104 % of control under setting [5]; 95 % of control under setting [6].

As for `CCOC(=O)C(C(C)=O)C(C)C` (stereo not given), the T/C by setting is: (endpoint: mean survival time, dose: 25.0 mg/kg/injection, schedule: Q01DX009 (ip), vehicle: water) 95 % of control; (endpoint: mean survival time, dose: 50.0 mg/kg/injection, schedule: Q01DX009 (ip), vehicle: water) 102 % of control; (endpoint: mean survival time, dose: 100.0 mg/kg/injection, schedule: Q01DX009 (ip), vehicle: water) 102 % of control; (endpoint: mean survival time, dose: 200.0 mg/kg/injection, schedule: Q01DX009 (ip), vehicle: water) 97 % of control; (endpoint: mean survival time, dose: 400.0 mg/kg/injection, schedule: Q01DX009 (ip), vehicle: water) 97 % of control.

Take `c1ccc(SCN2CCN(CSc3ccccc3)CC2)cc1`: the T/C (endpoint: mean survival time, dose: 100.0 mg/kg/injection, schedule: Q01DX009 (ip), vehicle: saline) was 91 % of control.

As to `CCN(CC)C(=S)SCc1c(Cl)c(Cl)c(Cl)c(Cl)c1Cl`, the T/C (endpoint: mean survival time, dose: 100.0 mg/kg/injection, schedule: Q04DX002 (ip), vehicle: saline with Tween-80) is 94 % of control; the T/C (endpoint: mean survival time, dose: 200.0 mg/kg/injection, schedule: Q04DX002 (ip), vehicle: saline with Tween-80) is 91 % of control; the T/C (endpoint: mean survival time, dose: 400.0 mg/kg/injection, schedule: Q04DX002 (ip), vehicle: saline with Tween-80) is 97 % of control.

Take `OC1C2CC3C1C3C2O` (stereo not given): the T/C reads like this: under setting [2], 94 % of control; under setting [4], 97 % of control; under setting [6], 105 % of control.

`CC(C)(C)C1COP(=S)(c2ccccc2)OC1` (stereo not given): the T/C was 94 % of control and 103 % of control (endpoint: mean survival time, dose: 25.0 mg/kg/injection, schedule: Q04DX003 (ip), vehicle: Klucel (hydroxypropylcellulose) (HPC)); 103 % of control and 97 % of control (endpoint: mean survival time, dose: 50.0 mg/kg/injection, schedule: Q04DX003 (ip), vehicle: Klucel (hydroxypropylcellulose) (HPC)); 97 % of control and 102 % of control (endpoint: mean survival time, dose: 100.0 mg/kg/injection, schedule: Q04DX003 (ip), vehicle: Klucel (hydroxypropylcellulose) (HPC)).

For `O=NN(CCCl)C(=O)NC1CCC(=O)NC1=O` (stereo not given), the T/C reads like this: (endpoint: median survival time, dose: 15.0 mg/kg/injection, schedule: Q01DX001 (ip), vehicle: saline with Tween-80) 344 % of control; (endpoint: median survival time, dose: 20.0 mg/kg/injection, schedule: Q01DX001 (ip), vehicle: saline with Tween-80) 344 % of control; (endpoint: median survival time, dose: 25.0 mg/kg/injection, schedule: Q01DX001 (ip), vehicle: saline with Tween-80) 344 % of control; (endpoint: median survival time, dose: 30.0 mg/kg/injection, schedule: Q01DX001 (ip), vehicle: saline with Tween-80) 344 % of control.

Take `CCNc1nc(Cl)nc(NC(C)C)n1`: the T/C was 93 % of control under setting [1]; 95 % of control (endpoint: mean survival time, dose: 100.0 mg/kg/injection, schedule: Q04DX003 (ip), vehicle: saline); 98 % of control under setting [3]; 101 % of control (endpoint: mean survival time, dose: 200.0 mg/kg/injection, schedule: Q04DX003 (ip), vehicle: saline); 92 % of control (endpoint: mean survival time, dose: 400.0 mg/kg/injection, schedule: Q04DX003 (ip), vehicle: saline).

`CCN(C(=O)Nc1ccc(Cl)cc1)c1ccccc1C`: the T/C runs as follows: under setting [1], 97 % of control; under setting [3], 94 % of control; under setting [5], 90 % of control.

Consider `CC(CO)CCC(C)CO` (stereo not given), for which the T/C is, setting by setting: under setting [2], 100 % of control; under setting [4], 95 % of control; under setting [6], 100 % of control.

In the case of `NC(CS)=NC1CCCCC1`, the T/C is 104 % of control (endpoint: mean survival time, dose: 12.5 mg/kg/injection, schedule: Q04DX002 (ip), vehicle: saline with Tween-80) and 96 % of control (endpoint: mean survival time, dose: 25.0 mg/kg/injection, schedule: Q04DX002 (ip), vehicle: saline with Tween-80).

With `CCCCCCCCC(C(=O)c1ccccc1)=C(C(F)(F)F)C(F)(F)F`, under setting [1], the T/C is 91 % of control.

Regarding `S=P12N3CCN1CCN2CC3`, the T/C by setting is: (endpoint: mean survival time, dose: 7.7 mg/kg/injection, schedule: Q01DX001 (ip), vehicle: water) 101 % of control; (endpoint: mean survival time, dose: 10.9 mg/kg/injection, schedule: Q01DX001 (ip), vehicle: water) 95 % of control; (endpoint: mean survival time, dose: 15.7 mg/kg/injection, schedule: Q01DX001 (ip), vehicle: water) 100 % of control; (endpoint: mean survival time, dose: 22.4 mg/kg/injection, schedule: Q01DX001 (ip), vehicle: water) 97 % of control; (endpoint: mean survival time, dose: 32.0 mg/kg/injection, schedule: Q01DX001 (ip), vehicle: water) 100 % of control; (endpoint: mean survival time, dose: 64.0 mg/kg/injection, schedule: Q01DX001 (ip), vehicle: saline) 95 % of control. Moreover, the T/C (endpoint: mean survival time, dose: 128.0 mg/kg/injection, schedule: Q01DX001 (ip), vehicle: saline) is 98 % of control.

Take `NC(N)=N/N=C\c1c2ccccc2cc2ccccc12`: the T/C reads like this: (endpoint: mean survival time, dose: 0.78 mg/kg/injection, schedule: Q01DX009 (ip), vehicle: water) 100 % of control; (endpoint: mean survival time, dose: 1.56 mg/kg/injection, schedule: Q01DX009 (ip), vehicle: other) 101 % of control; (endpoint: mean survival time, dose: 1.56 mg/kg/injection, schedule: Q01DX009 (ip), vehicle: water) 101 % of control; (endpoint: mean survival time, dose: 3.13 mg/kg/injection, schedule: Q01DX009 (ip), vehicle: other) 100 % of control; (endpoint: mean survival time, dose: 3.13 mg/kg/injection, schedule: Q01DX009 (ip), vehicle: water) 116 % of control; (endpoint: mean survival time, dose: 6.25 mg/kg/injection, schedule: Q01DX009 (ip), vehicle: other) 106 % of control. Besides, the T/C was 106 % of control (endpoint: mean survival time, dose: 12.5 mg/kg/injection, schedule: Q01DX009 (ip), vehicle: other); 105 % of control (endpoint: mean survival time, dose: 12.5 mg/kg/injection, schedule: Q01DX009 (ip), vehicle: water); 111 % of control (endpoint: mean survival time, dose: 25.0 mg/kg/injection, schedule: Q01DX009 (ip), vehicle: other).

With `Brc1c2ccccc2c(Br)c2ccccc12`, the T/C is, setting by setting: (endpoint: mean survival time, dose: 100.0 mg/kg/injection, schedule: Q04DX002 (ip), vehicle: Klucel (hydroxypropylcellulose) (HPC)) 86 % of control; (endpoint: mean survival time, dose: 200.0 mg/kg/injection, schedule: Q04DX002 (ip), vehicle: Klucel (hydroxypropylcellulose) (HPC)) 114 % of control; (endpoint: mean survival time, dose: 400.0 mg/kg/injection, schedule: Q04DX002 (ip), vehicle: Klucel (hydroxypropylcellulose) (HPC)) 86 % of control.

With `CS(=O)(=O)c1nc(Cl)c(Cl)c(C#N)c1Cl`, the T/C reads like this: (endpoint: mean survival time, dose: 5.0 mg/kg/injection, schedule: Q01DX009 (ip), vehicle: saline with Tween-80) 100 % of control; (endpoint: mean survival time, dose: 10.0 mg/kg/injection, schedule: Q01DX009 (ip), vehicle: saline with Tween-80) 95 % of control; (endpoint: mean survival time, dose: 20.0 mg/kg/injection, schedule: Q01DX009 (ip), vehicle: saline with Tween-80) 95 % of control.

With `NC1CCCCC1N.O=C([O-])c1cc(S(=O)(=O)Nc2cc(S(=O)(=O)[O-])cc3cc(S(=O)(=O)[O-])cc(O)c23)ccc1[O-].[Pt+4]`, the T/C reads like this: (endpoint: median survival time, dose: 0.39 mg/kg/injection, schedule: Q04DX003 (ip), vehicle: saline with Tween-80) 124 % of control; (endpoint: median survival time, dose: 1.56 mg/kg/injection, schedule: Q04DX003 (ip), vehicle: saline with Tween-80) 181 % of control; (endpoint: median survival time, dose: 3.12 mg/kg/injection, schedule: Q04DX003 (ip), vehicle: saline with Tween-80) 253 % of control and 264 % of control; (endpoint: median survival time, dose: 6.25 mg/kg/injection, schedule: Q04DX003 (ip), vehicle: saline with Tween-80) 289 % of control and 103 % of control.

Take `C=C(Br)CNC(=O)NCC(=C)Br`: the T/C runs as follows: (endpoint: mean survival time, dose: 100.0 mg/kg/injection, schedule: Q01DX001 (ip), vehicle: saline with Tween-80) 91 % of control; (endpoint: mean survival time, dose: 200.0 mg/kg/injection, schedule: Q01DX001 (ip), vehicle: saline with Tween-80) 96 % of control; (endpoint: mean survival time, dose: 400.0 mg/kg/injection, schedule: Q01DX001 (ip), vehicle: saline with Tween-80) 101 % of control.

For `CCCCCOS(=O)(=O)c1ccc(Cl)c([N+](=O)[O-])c1`, under setting [2], the T/C was 98 % of control.

On to `Cn1ncc2c(N)nc(-c3ccccn3)nc21`, for which the T/C is, setting by setting: (endpoint: mean survival time, dose: 12.5 mg/kg/injection, schedule: Q01DX005 (ip), vehicle: water) 97 % of control; (endpoint: mean survival time, dose: 25.0 mg/kg/injection, schedule: Q01DX005 (ip), vehicle: water) 94 % of control; (endpoint: mean survival time, dose: 50.0 mg/kg/injection, schedule: Q01DX005 (ip), vehicle: water) 91 % of control; (endpoint: mean survival time, dose: 100.0 mg/kg/injection, schedule: Q01DX005 (ip), vehicle: water) 94 % of control.

In the case of `Cc1c(O)c(Br)c(C)c(O)c1Br` (tested in a mixture with another compound), the T/C runs as follows: (endpoint: mean survival time, dose: 100.0 mg/kg/injection, schedule: Q01DX001 (ip), vehicle: saline) 98 % of control; (endpoint: mean survival time, dose: 200.0 mg/kg/injection, schedule: Q01DX001 (ip), vehicle: saline) 101 % of control.

These data come from PubChem BioAssay AID256 (DTP/NCI, 2004).
